In patent US6723699B1, “Treating disorders by application of insulin-like growth factors and analogs” (Cephalon, Inc., priority 1989, dated 2004):

Columns and labels:
[1] = test system: 14-day embryonic rat spinal cord neurons; assay: Choline acetyltransferase activity in dissociated embryonic rat spinal cord neuron cultures; type: cell-based; conditions: 48 hr incubation
Experimental: The activity of IGF-I, IGF-II, or synthetic peptide derivatives of these molecules was assayed on dissociated cultures of 14-day embryonic rat spinal cord neurons. The spinal cord neurons were obtained from trypsin-dissociated spinal cords, plated, incubated with peptides, and subsequently (48 hr later) assayed for choline acetyltransferase activity as described by […] et al., Dev. Biol. 125:311-320 (1988).

motoneurons = assay: Motoneuron survival in ovo (developmentally regulated motoneuron death); type: in vivo, chick; conditions: 5 μg/egg daily onto chorioallantoic membrane, E6 to E9, counted E10
From the text: In the spinal cord, as well as in other regions of the nervous system, neurons are over-produced during development, and undergo a process of naturally occurring cell death prior to […] (reviewed in Oppenheim, R. W. 1991, Annu Rev. Neurosci. 14:453-501). During this period, approximately 50% of the motoneurons degenerate and die. Certain neurotrophic agents applied exogenously during this period prevent or retard this form of neuronal death (e.g., partially purified muscle extracts and ciliary neurotrophic factor reduce motor neuron death in chick embryos (McManaman et al., 1990, Neuron 4:891-898; Oppenheim et al. 1991, Science 25:1616-1617).
The IGFs were administered daily onto chorioallantoic membrane (5 μg/egg in a volume of 50 μl) from embryonic day E6 to E9 through a small window cut into the shell of the egg. Control embryos received an equal volume of vehicle (phosphate buffered saline) alone on E10, the embryos were removed, sacrificed and the spinal cords sectioned. Motoneurons (identified morphologically in silver-stained sections) were counted in serial sections from both treated and control embryos. […] The differences between effects produced by the different IGFs used were not statistically significant (Student t test […]).

[2] = test system: cultured rat septal cells; assay: ChAT activity in cultured rat septal cells; type: cell-based
Experimental: The effect of simultaneous administration of IGF-I and NGF on ChAT activity was assayed in cultured septal neurons. ChAT is the initial enzyme in the synthesis of the neurotransmitter, acetylcholine, and is a specific biochemical marker for cholinergic neurons. Assay of this enzyme may be used as an indication of the effects of IGF (and other factors) on the survival of cholinergic neurons and/or regulation of this enzyme. […] In FIG. 9 open squares represent IGF-I, diamonds indicate IGF-I+2 nM NGF, open circles indicate 2 nM NGF, and the horizontal line at 403 DPM represents uninduced cells. A similar additive effect was seen when saturating concentrations of IGF-I were combined with saturating or sub-maximal concentrations of NGF, as shown in FIG. 10. In FIG. 10 open squares indicate NGF, diamonds indicate NGF+25 nM IGF-I, open circles represent 25 nM IGF-I, and the horizontal line at 554 DPM represents uninduced cells.
Cultured rat septal cell experiments were performed generally as described in Hartikku and Hefti, J. Neuroscience, 8:2967-2985 […], Hayashi and Patel, Dev. Brain Res., 36:109-120 (1987), and as follows.
Dissociated cell cultures of the septal region of day 17 embryonic rats were prepared by standard techniques known to those skilled in the art, using enzymatic (Dispase, Collaborative Research) dissociation of tissue. Cells were seeded (plated) at 6×10^5 cells/cm^2 in poly-1-ornithine-laminin coated plastic tissue culture wells, and cultured in serum-free N2 medium (Bottenstein et al., 1978) for 5 days without feeding. Control (uninduced) cultures received no added growth factors; induced cultures received the concentrations of IGF-I and NGF indicated in FIGS. 9 and 10 at the time of plating. NGF is commercially available. ChAT was assayed by the method described in McManaman, et al. Dev. Biol. 125:311-320 (1988). AChE staining was performed according to the method of Hartikka and Hefti, J. Neuroscience 8:2967-2985 (1988).

[3] = test system: cultured rat cortical cells; assay: [3H]-leucine incorporation in cultured rat cortical cells; type: cell-based; conditions: low density 24 hour mixed cortical cultures
Experimental: The ability of IGF-I and a synthetic derivative of IGF-II (IGF-II(54-67)) to increase the incorporation of [^3H]-leucine and to promote the survival of neurite bearing cells was examined in cultured rat cortical cells (the numbers “54-67” in IGF-II indicate the fragment includes amino acid residues 54-67 of native IGF-II).
Measurements were performed, using standard techniques known to those skilled in the art, on dissociated cortical cells obtained from day 18-19 embryonic rats. Cells were seeded at 1.5×10^4/cm^2 on poly-1-ornithine-laminin coated plastic tissue culture cells in serum-free N2 medium (Bottenstein et al. Proc. Natl. Acad. Sci. U.S.A. 76: 514-517 (1978)). [^3H]-leucine was added to cells at plating for the incorporation assay. Cultures were terminated 24 hours after plating and measured for either [^3H]-leucine incorporation or for the number of neuritic cells by microscopic examination.

[4] = test system: brain ornithine decarboxylase; assay: Induction of brain ornithine decarboxylase after intraventricular injection, adult rats; type: in vivo, rat; conditions: 6 hours, cerebral cortex, medial septum, hippocampus
Experimental: To determine whether the induction of brain ornithine decarboxylase by IGF-I was limited to developing animals, IGF-I was also injected intraventricularly into the lateral ventricles of adult Sprague-Dawley rats. After 6 hours, the brains were removed, dissected into several regions (cerebral cortex, medial septum, and hippocampus), and then assayed for ornithine decarboxylase activity as described in Example 4.

[5] = test system: fetal rat cortical neuronal cultures; assay: Fetal rat cortical neuron survival by [3H]leucine incorporation; type: cell-based
Experimental: The neuronal survival promoting activity of IGF-I and IGF-II was assayed on fetal rat cortical neuranal cultures. Cerebral cortices were removed from embryonic day 18 fetal rats. Cortices were minced and treated with neutral protease (Dispase, Collaborative Research) to yield dissociated cell preparations. Cells were plated at low density (5×10^3 cells/well) onto poly-L-ornithine and laminin coated ½ area 96 well plates in 50 μl of serum and insulin-free N2 medium containing 0.05% BSA and 50 μM leucine. IGF-I or II were present from time of seeding. Control cultures received no growth factor. Cultures were incubated for 24 hr at 37° C. in an atmosphere of 5% CO2, 95% air. After 24 hrs, [^3H]leucine was added in an additional 50 μl of modified N2 medium to a final concentration of 12.5 μCi/ml. Twenty-four hours after the addition of [^3H]leucine, cultures were harvested, protein precipitated on filters with 10% trichloroacetic acid, and dried filters counted in a liquid scintillation counter. The incorporation of [^3H]leucine into cells is an accurate reflection of cell survival, since incorporated [^3H]leucine counts correlated directly with the number of surviving cells as measured by microscopic counts of cells in identical cultures.

**Q.** With “GPETLCGAELVDALQFVCGDRGFYFNKPTGYGSSS-RRAPQTGIVDECCFRSCDLRRLEMYCAPLKPAKSA [IGF-I]” as the substance, how does the “choline acetyltransferase activity (in words)” value [1] read?
**A.** The value was “substantial, dose-dependent increase in choline acetyltransferase activity”.

**Q.** What about the “prevention of developmentally regulated motoneuron death (in words)” value (motoneurons) of the same substance?
**A.** The value was “partially prevented developmentally regulated motoneuron death”.

**Q.** And the “ChAT activity % increase over control” value ([2]; concentration not printed (second part of table))?
**A.** Its value is 44%.

**Q.** What about the “ChAT activity % increase over control” value ([2]; single growth factor 1.3 nM) of the same substance?
**A.** Its value is 20%.

**Q.** And the “ChAT activity % increase over control” value ([2]; single growth factor 12.5 nM)?
**A.** Its value is 50%.

**Q.** What about the “ChAT activity % increase over control” value ([2]; single growth factor 25.0 nM) of the same substance?
**A.** The value was 37%.

**Q.** What about the “[3H]-leucine incorporation (in words)” value [3] of the same substance?
**A.** The value was “increased [^3H]-leucine incorporation”.

**Q.** And the “ornithine decarboxylase activity (in words)” value [4]?
**A.** Its value is “stimulated ornithine decarboxylase activity in all brain regions assayed”.

**Q.** What about the “relative potency in promoting survival of cortical neurons (in words)” value ([5]; IGF-I versus IGF-II) of the same substance?
**A.** Its value is “slightly more potent”.

**Q.** What about the “survival of cortical neurons (in words)” value ([5]; [3H]leucine incorporation, 48 hr) of the same substance?
**A.** The value was “promoted the survival of cortical neurons”.
